Reference: PMC11323243, “Novel Inhibitors of SARS-CoV-2 RNA Identified through Virtual Screening” (Journal of Chemical Information and Modeling, 2024)
Entries after “also recorded” stand apart in the source; their conditions may differ.

Columns and labels:
[1] = tested on: Omicron (BA.1) SARS-CoV-2; assay: Antiviral activity, plaque reduction assay on Vero E6 cells; format: cell-based; details: CC50/EC50, Vero E6 cells
[2] = Cell viability (MTT) after 3 days of exposure; format: cell-based; details: African green monkey, Vero E6 cells, read-out: CC50, concentration reducing cell viability by 50%
[3] = tested on: −1PRF element of SARS-CoV-2; assay: Dual-luciferase assay measuring frameshift efficiency; format: cell-based; details: Vero E6 cells; for effect on frameshift efficiency (in words): dual-luciferase assay; for reduction of frameshift efficiency: single nontoxic dose
[4] = tested on: −1PRF element of SARS-CoV-2; details: previously identified; cited from earlier work

## NCCc1ccc(CN2CCC(O)(c3cccc(C(F)(F)F)c3)CC2)cc1 [Compound 188]
[1]
  SI, selective index: 4.69
[2]
  CC50 at 3 days: 80.6 µM

## Cc1cc2c(cc1CN1CC(CO)C(CN3CCCCCC3)C1)OCCO2 (centres unmarked) [Compound 194]
[1]
  SI, selective index: >3.46
[3]
  effect on frameshift efficiency (in words): significant reduction in frameshift efficiency
  reduction of frameshift efficiency: 23%
[2]
  CC50 at 3 days: > 100 µM

## OC1CN(Cc2cccc3cc[nH]c23)CCN(c2ccncc2)C1 (centres unmarked) [Compound 229]
[1]
  SI, selective index: 3.47
[2]
  CC50 at 3 days: 93 µM

## OCC1CN(Cc2cc3c(cc2Cl)OCO3)CC1CN1CCCCCC1 (centres unmarked) [Compound 269]
[3]
  effect on frameshift efficiency (in words): nonsignificant reduction of frameshift efficiency; also recorded: reduction in frameshift, though not statistically significant

## Cc1cc2c(cc1CN1CC(CO)C(CN3CCN(C)CC3)C1)OCCO2 (centres unmarked) [Compound 782]
[3]
  effect on frameshift efficiency (in words): significant and improved reduction of frameshift efficiency compared to 194; also recorded: dose-dependent
  reduction of frameshift efficiency: 38%

## OC1CCCN(C2CCN(Cc3ncc[nH]3)CC2)C1 (centres unmarked) [Compound 21256088]
[2]
  CC50 at 3 days: > 100 µM

## Cc1nc(CN)cc(N2CCC(C(O)c3nccn3C)CC2)n1 (centres unmarked) [Compound 32807865]
[2]
  CC50 at 3 days: > 100 µM

## CN[C@@H]1[C@@H](O)[C@@H](O[C@@H]2[C@@H](O)[C@H](O[C@H]3O[C@H]([C@@H](C)O)[C@@H](O)[C@H](O)[C@H]3N)[C@@H](N)C[C@H]2N)OC[C@]1(C)O [geneticin]
[4]
  inhibition of the −1PRF of SARS-CoV-2 (in words): specific inhibition of the −1PRF of SARS-CoV-2

## CCNCC1CCN(c2c(F)cc3c(=O)c(C(=O)O)cn(CC)c3c2F)C1 (centres unmarked) [merafloxacin]
[4]
  inhibition of the −1PRF of SARS-CoV-2 (in words): specific inhibition of the −1PRF of SARS-CoV-2

## Clc1ccc2c(N3CCN(CCCN4CCN(c5ccnc6cc(Cl)ccc56)CC4)CC3)ccnc2c1 [piperaquine, reference compound]
[1]
  SI, selective index: 0.49
[2]
  CC50 at 3 days: 5.66 µM
